Data as given in paper PMC6539495, “Anti-Cancer Activity of Novel Dihydrotestosterone-Derived Ring A-Condensed Pyrazoles on Androgen Non-Responsive Prostate Cancer Cell Lines” (International Journal of Molecular Sciences, 2019).

What was measured:
[1] = tested on: MDA-MB-231 cells; test: MTT cell viability assay on MDA-MB-231 breast cancer cells; assay type: cell-based, human; conditions: 72 hours
Method: (§1) HeLa, MCF-7 and MDA-MB-231 cells were obtained from Sigma-Aldrich and maintained as reported previously. MRC-5, PC-3, DU 145 cells were purchased from American Type Culture Collection (ATCC, Manassas, VA, USA). PC-3 and DU 145 were maintained in RPMI medium (Sigma-Aldrich) whereas MRC-5 cells were maintained in DMEM medium (Sigma-Aldrich). All media were complemented with 10% Fetal bovine serum (FBS, Sigma-Aldrich) 2 mM L-glutamine, 0.01% streptomycin and 0.005% ampicillin (Sigma-Aldrich). Cells were cultured under standard conditions in a 37 °C incubator containing 5% CO2 in 95% humidity.
(§2) Each test compound was dissolved in cell culture grade DMSO (Molar Chemicals, Halásztelek, Hungary) in a final concentration of […]. Antiproliferative action of the synthesized steroids was investigated by MTT assay. An amount of 5000 cells/well were seeded into 96 well plates. Twenty-four hours post seeding, all cell lines were treated with each compound in 10 and 30 μM concentrations for 72 hours. […] After 72 hours, cells were washed with PBS and incubated with culture medium containing 0.5 mg/mL MTT (3-(4, 5-dimethylthiazolyl-2)-2,5-diphenyltetrazolium bromide) reagent (SERVA, GmbH, Heidelberg, Germany) for an hour at 37 °C. Formazan crystals were solubilized in DMSO and extinction was measured at 570 nm using a Synergy HTX plate reader (BioTech-Hungary, Budapest, Hungary). MTT assays were performed at least three times using four independent biological replicates. Data were normalized to solvent controls and the graphical representation of the obtained data as well as the calculation of IC50 values were carried out by GraphPad Prism 7 software (GraphPad Software; San Diego, CA, USA).

[2] = tested on: PC-3 cells; test: MTT cell viability assay on PC-3 prostate cancer cells; assay type: cell-based, human; conditions: for antiproliferative potency against PC-3 prostate cancer cells compared to MRC-5 non-cancerous fibroblasts: primary screen
Method: as §1, §2

[3] = tested on: HeLa cells; test: MTT cell viability assay on HeLa cervical cancer cells; assay type: cell-based, human; conditions: 72 hours
Method: as §1, §2

[4] = tested on: MCF-7 cells; test: MTT cell viability assay on MCF-7 breast cancer cells; assay type: cell-based, human; conditions: 72 hours
Method: as §1, §2

[5] = tested on: MRC-5 cells; test: MTT cell viability assay on non-cancerous MRC-5 fibroblasts; assay type: cell-based; conditions: 72 hours, MTT
Method: as §1, §2

[6] = tested on: DU 145 cells; test: MTT cell viability assay on DU 145 prostate cancer cells; assay type: cell-based, human; conditions: 72 hours
Method: as §1, §2

SMILES | Mean values (%) of primary growth inhibitory screen (viability in %), MDA-MB-231 ([1]; 10 µM) | Mean values (%) of primary growth inhibitory screen (viability in %), MDA-MB-231 ([1]; 30 µM) | Mean values (%) of primary growth inhibitory screen (viability in %), PC-3 ([2]; 10 µM, 72 hours, MTT) | Mean values (%) of primary growth inhibitory screen (viability in %), PC-3 ([2]; 30 µM, 72 hours, MTT) | Mean values (%) of primary growth inhibitory screen (viability in %), HeLa ([3]; 10 µM) | Mean values (%) of primary growth inhibitory screen (viability in %), HeLa ([3]; 30 µM) | Mean values (%) of primary growth inhibitory screen (viability in %), MCF-7 ([4]; 10 µM) | Mean values (%) of primary growth inhibitory screen (viability in %), MCF-7 ([4]; 30 µM) | Mean values (%) of primary growth inhibitory screen (viability in %), MRC-5 ([5]; 10 µM) | Mean values (%) of primary growth inhibitory screen (viability in %), MRC-5 ([5]; 30 µM) | Mean values (%) of primary growth inhibitory screen (viability in %), DU 145 ([6]; 10 µM) | Mean values (%) of primary growth inhibitory screen (viability in %), DU 145 ([6]; 30 µM) | antiproliferative potency against PC-3 prostate cancer cells compared to MRC-5 non-cancerous fibroblasts ([2]; 30 µM) | antiproliferative potency against PC-3 prostate cancer cells compared to MRC-5 non-cancerous fibroblasts ([2]; 10 µM) | IC50 ([1]; ± SD) | IC50 ([2]; MTT, 72 hours, ± SD) | IC50 ([3]; ± SD) | IC50 ([4]; ± SD) | IC50 ([5]; ± SD) | IC50 ([6]; ± SD)
Cc1ccc(-n2nc3c(c2C)C[C@@]2(C)[C@@H](CC[C@@H]4[C@@H]2CC[C@]2(C)C(=O)CC[C@@H]42)C3)c(C)c1 [5d, 1′-(2″,4″-Dimethylphenyl)-5′-methylpyrazolo[3′,4′:3,2]-5α-androst-17-one] | 77.2% | 54.1% | 52.1% | 14.6% | 39.5% | 30.7% | 56.3% | 13.3% | 80.1% | 21.3% | 65.6% | 10.0% | – | – | – | – | – | – | – | –
COc1ccc(-n2nc3c(c2C)C[C@@]2(C)[C@@H](CC[C@@H]4[C@@H]2CC[C@]2(C)C(=O)CC[C@@H]42)C3)cc1 [5e, 1′-(4″-Methoxyphenyl)-5′-methylpyrazolo[3′,4′:3,2]-5α-androst-17-one] | 72.0% | 61.5% | 45.5% | 29.7% | 38.4% | 41.8% | 53.5% | 36.3% | 79.3% | 79.3% | 62.1% | 48.1% | significantly higher | – | – | – | – | – | – | –
Cc1c2c(nn1-c1ccc(F)cc1)C[C@@H]1CC[C@@H]3[C@H](CC[C@]4(C)C(=O)CC[C@@H]34)[C@@]1(C)C2 [5f, 1′-(4″-Fluorophenyl)-5′-methylpyrazolo[3′,4′:3,2]-5α-androst-17-one] | 82.3% | 66.0% | 54.3% | 17.6% | 40.5% | 50.5% | 72.6% | 30.6% | 83.9% | 66.1% | 74.9% | 50.7% | significantly higher | significantly higher | – | – | – | – | – | –
Cc1c2c(nn1-c1ccc(Cl)cc1)C[C@@H]1CC[C@@H]3[C@H](CC[C@]4(C)C(=O)CC[C@@H]34)[C@@]1(C)C2 [5g, 1′-(4″-Chlorophenyl)-5′-methylpyrazolo[3′,4′:3,2]-5α-androst-17-one] | 65.7% | 65.1% | 54.7% | 11.8% | 38.7% | 39.0% | 56.3% | 28.0% | 94.4% | 18.1% | 73.7% | 23.2% | – | significantly higher | – | – | – | – | – | –
Cc1c2c(nn1-c1ccc(C#N)cc1)C[C@@H]1CC[C@@H]3[C@H](CC[C@]4(C)C(=O)CC[C@@H]34)[C@@]1(C)C2 [5i, 1′-(4″-Cyanophenyl)-5′-methylpyrazolo[3′,4′:3,2]-5α-androst-17-one] | 70.6% | 59.7% | 56.2% | 70.0% | 42.2% | 36.4% | 53.2% | 39.4% | 90.4% | 87.9% | 83.3% | 79.9% | – | – | – | – | – | – | – | –
Cc1c2c(nn1-c1ccc([N+](=O)[O-])cc1)C[C@@H]1CC[C@@H]3[C@H](CC[C@]4(C)C(=O)CC[C@@H]34)[C@@]1(C)C2 [5j, 1′-(4″-Nitrophenyl)-5′-methylpyrazolo[3′,4′:3,2]-5α-androst-17-one] | 83.5% | 71.7% | 36.8% | 16.0% | 47.4% | 29.4% | 46.5% | 14.4% | 94.8% | 44.6% | 73.0% | 42.8% | significantly higher | significantly higher | > 30 µM | 6.7 ± 1.1 µM | 10.4 ± 0.1 µM | 11.3 ± 2.8 µM | 25.5 ± 2.3 µM | 13.5 ± 1.1 µM
